Patent US7687484B2, “Transporter enhanced corticosteroid activity” (priority 2006, dated 2010)
Entries after “also recorded” stand apart in the source; their conditions may differ. Where two headings read alike, the source gives them in different places.

Columns and labels:
[1] = logP reported in literature; cited from earlier work
glucocorticoid receptor [2] = molecular target: T1, glucocorticoid receptor (Homo sapiens, UniProt P04150); conditions: relative to dexamethasone = 100; average of all values if multiple available; cited from earlier work
T1 sequence (P04150 1-777): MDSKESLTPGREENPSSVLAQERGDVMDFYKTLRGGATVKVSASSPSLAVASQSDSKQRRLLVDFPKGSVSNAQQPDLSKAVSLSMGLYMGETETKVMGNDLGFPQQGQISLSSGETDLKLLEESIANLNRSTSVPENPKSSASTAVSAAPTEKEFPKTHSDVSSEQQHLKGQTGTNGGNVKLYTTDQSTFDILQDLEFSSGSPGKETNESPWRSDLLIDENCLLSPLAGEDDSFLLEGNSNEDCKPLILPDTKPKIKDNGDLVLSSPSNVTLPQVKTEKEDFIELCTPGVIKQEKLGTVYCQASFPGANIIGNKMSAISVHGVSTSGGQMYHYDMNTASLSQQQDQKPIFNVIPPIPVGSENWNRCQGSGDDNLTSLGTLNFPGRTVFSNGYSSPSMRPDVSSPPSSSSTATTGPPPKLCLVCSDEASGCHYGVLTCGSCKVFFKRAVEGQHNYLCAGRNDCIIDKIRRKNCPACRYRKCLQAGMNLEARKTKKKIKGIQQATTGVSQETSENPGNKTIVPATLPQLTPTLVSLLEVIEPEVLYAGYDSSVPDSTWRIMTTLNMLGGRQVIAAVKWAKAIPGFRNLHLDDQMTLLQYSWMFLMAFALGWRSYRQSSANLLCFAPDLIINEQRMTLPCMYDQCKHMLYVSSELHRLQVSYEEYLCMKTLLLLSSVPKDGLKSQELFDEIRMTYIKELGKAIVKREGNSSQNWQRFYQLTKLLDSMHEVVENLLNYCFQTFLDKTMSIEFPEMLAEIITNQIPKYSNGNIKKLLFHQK

[3] = molecular target: T2, Corticosteroid Binding Globulin (CBG), transcortin (Homo sapiens, UniProt P08185); conditions: cited from earlier work; for Class: CBG binding activity class
T2 sequence (P08185 23-405): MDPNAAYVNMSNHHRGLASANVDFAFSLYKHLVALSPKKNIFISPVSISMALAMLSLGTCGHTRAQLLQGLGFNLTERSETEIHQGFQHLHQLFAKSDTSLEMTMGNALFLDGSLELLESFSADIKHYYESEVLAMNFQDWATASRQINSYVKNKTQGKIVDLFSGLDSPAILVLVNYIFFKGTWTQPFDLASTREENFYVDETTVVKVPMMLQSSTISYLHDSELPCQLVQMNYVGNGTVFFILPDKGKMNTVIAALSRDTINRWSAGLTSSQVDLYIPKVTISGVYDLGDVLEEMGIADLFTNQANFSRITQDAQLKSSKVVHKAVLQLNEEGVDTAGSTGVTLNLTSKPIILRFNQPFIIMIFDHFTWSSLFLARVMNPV

transcortin (CBG) = molecular target: T3, transcortin (CBG) (Homo sapiens, UniProt P08185); experiment: Binding of corticosteroids to transcortin: 3H-cortisol competition in charcoal-treated diluted plasma
T3 construct: from tissue; host or cells: plasma from venous blood of healthy volunteers, charcoal-treated, diluted 100-fold
T3 sequence (P08185 23-405): T2 sequence (P08185 23-405)
Method: Experimental procedure: Venous blood was collected from healthy volunteers into heparin-containing tubes (5 Us/100 ml serum) and cells were separated from plasma by centrifugation (1500 g for 15 min). […] Charcoal-treated plasma was diluted 100-fold with binding buffer (10 mM Tris-HCl; 2 mM DTT (dithiotreitol); 1.5 mM EDTA; 0.02 M Na2MoO4; 10% Glycerol; pH 7.4) and was stored aliquoted at −80° C. […] The assay ingredients were mixed and the tubes were incubated for 1 hour on ice. At the end of the incubation, 0.2 ml of charcoal suspension (0.5% Norit A and 0.05% BSA) was added to each tube. The tubes were briefly agitated and incubated for an additional 10 min at 0° C. They were then centrifuged for 10 min at 15 000 g, and the same aliquots from the clear supernatants were quantitatively decanted into counting vials and combined with 3 ml of toluene-based scintillation fluid. […] Specific binding and IC50-values were calculated.

glucocorticoid receptor [4] = molecular target: T1, glucocorticoid receptor; experiment: Relative binding affinity for the glucocorticoid receptor (GCR/GR); conditions: GRs were calculated from RBAs; read-out: GR Est. IC50
[5] = test system: forearms of human volunteers; experiment: Human vasoconstriction (blanching) testing; format: in vivo; set-up: key to Vasoconstriction activity (total score of 4 tests): sum of 4 tests, each 0 = normal skin to 4 = very intense pallor
Method: Solutions of LE, HC and PRN (0.1 or 1 mM) alone, or mixtures of LE and HC (0.1+0.1 mM, or 1+1 mM), or LE and PRN (0.1+0.1 mM, or 1+1 mM) were prepared with a vehicle containing absolute ethanol and propylene glycol (9:1). […] After evaporation of ethanol (20 min), the films were applied to the forearms of human volunteers for 4 hours. Subsequently, the vasoconstriction reaction was read and judged by the appearance of pallor at various time intervals after the removal of the discs and films. The grading scale was as follows: 0, normal skin; 1, slight pallor; 2, pallor with at least two corners outlined; 3, even pallor with a clear outlined of the application sites; 4, very intense pallor. Due to the relatively high variations in response between the volunteers, a total score of 4 tests at each time point was taken for the activity evaluation.

[6] = 3 nM 3H-cortisol, 1 hour on ice, plasma diluted 100-fold, read-out: IC50-values (nM) average ± SEM (n)
[7] = estimated, unpublished results Bodor, Kurucz 2006, read-out: CBG Est. IC50

Row | IC50 (transcortin (CBG); [6]) [nM] | IC50 (transcortin (CBG); [7]) [nM] | SMILES | logP [1] | rBA (relative receptor binding affinity) (glucocorticoid receptor [2]) | other results
1 | – | – | C[C@H]1C[C@H]2[C@@H]3CCC4=CC(=O)C=C[C@]4(C)[C@@]3(F)[C@@H](O)C[C@]2(C)[C@@]1(O)C(=O)CO [Betamethasone] | 1.94 | – | –
2 | – | – | CCCC1O[C@@H]2C[C@H]3[C@@H]4CCC5=CC(=O)C=C[C@]5(C)[C@H]4[C@@H](O)C[C@]3(C)[C@]2(C(=O)CO)O1 (stereo partly shown) [Budesonide, 22R, Budesonide] | 3.24 | – | –
3 | – | – | CCC(=O)O[C@]1(C(=O)CCl)[C@@H](C)C[C@H]2[C@@H]3CCC4=CC(=O)C=C[C@]4(C)[C@@]3(F)[C@@H](O)C[C@@]21C [Clobetasol propionate] | 3.83 | 6300 | –
4 | – | – | C[C@]12C[C@H](O)[C@H]3[C@@H](CCC4=CC(=O)CC[C@@]43C)[C@@H]1CC[C@@H]2C(=O)CO [Corticosterone] | 1.94 | 35 | Class [3]: 1; Log 1/K ([3]; CBG binding affinity, literature data): −7.881
5 | 117 ± 49 | 120 | C[C@]12CCC(=O)C=C1CCC1C2[C@@H](O)C[C@@]2(C)C1CC[C@]2(O)C(=O)O (stereo partly drawn) [Cortienic acid (CA) GYKI-24805, 11β,17α-dihydroxyandrost-4-en-3-one-17β-carboxylic acid] | – | – | IC50 (glucocorticoid receptor [4]): > 1000 nM
6 | 4500 ± 973 | – | CCOC(=O)[C@@]1(OC(=O)C(Cl)Cl)CC[C@H]2[C@@H]3CCC4=CC(=O)C=C[C@]4(C)[C@H]3[C@@H](O)C[C@@]21C [Etiprednol dicloacetate (BNP-166), Etiprednol dicloacetate] | – | 200 | –
7 | – | – | CC1(C)O[C@@H]2C[C@H]3[C@@H]4C[C@H](F)C5=CC(=O)C=C[C@]5(C)[C@H]4[C@@H](O)C[C@]3(C)[C@]2(C(=O)CO)O1 [Flunisolide] | 2.28 | 165 | –
8 | – | > 10000 | CCC(=O)O[C@]1(C(=O)SCF)[C@H](C)C[C@H]2[C@@H]3C[C@H](F)C4=CC(=O)C=C[C@]4(C)[C@@]3(F)[C@@H](O)C[C@@]21C [Fluticasone propionate] | 4.20 | – | –
9 | – | – | CC(=O)O[C@]1(C(=O)CO)CC[C@H]2[C@@H]3CCC4=CC(=O)CC[C@]4(C)[C@H]3[C@@H](O)C[C@@]21C [Hydrocortisone 17-acetate] | – | 41 | –
10 | – | – | CCCC(=O)O[C@]1(C(=O)CO)CC[C@H]2[C@@H]3CCC4=CC(=O)CC[C@]4(C)[C@H]3[C@@H](O)C[C@@]21C [Hydrocortisone 17-butyrate] | – | 95 | –
11 | – | – | CCC(=O)O[C@]1(C(=O)CO)CC[C@H]2[C@@H]3CCC4=CC(=O)CC[C@]4(C)[C@H]3[C@@H](O)C[C@@]21C [Hydrocortisone 17-propionate] | 2.70 | 79 | –
12 | – | – | C[C@@H]1C[C@H]2[C@@H]3CCC4=CC(=O)C=C[C@]4(C)[C@@]3(Cl)[C@@H](O)C[C@]2(C)[C@@]1(O)C(=O)CCl [Mometasone] | – | 88 | –
13 | 52 ± 10 | 50 | C[C@]12C=CC(=O)C=C1CCC1C2[C@@H](O)C[C@@]2(C)C1CC[C@]2(O)C(=O)O (stereo partly shown) [Δ1-CA GYKI-24762, Δ^1-cortienic acid] | – | – | IC50 (glucocorticoid receptor [4]): > 1000 nM
14 | 31 ± 11 | 30 | COC(=O)[C@@]1(O)CCC2C3CCC4=CC(=O)C=C[C@]4(C)C3[C@@H](O)C[C@@]21C (stereo partly shown) [Δ1-CA-Me GYKI-24776, Δ^1-CA, methyl ester] | – | – | IC50 (glucocorticoid receptor [4]): > 1000 nM

Row | SMILES | IC50 (transcortin (CBG); [6]) [nM] | IC50 (transcortin (CBG); [7]) [nM] | logP [1] | rBA (relative receptor binding affinity) (glucocorticoid receptor [2]) | other results
15 | C[C@]12CCC(=O)C=C1CCC1C2[C@@H](O)C[C@@]2(C)C1CC[C@]2(O)C(=O)CO (stereo partly shown) [Hydrocortisone (cortisol), hydrocortisone] | 69 ± 8 | 70 | 1.61 | – | Vasoconstriction activity (total score of 4 tests) ([5]; 0.1 mM, 2 hr after removal, 4 h application): 0; Vasoconstriction activity (total score of 4 tests) ([5]; 0.1 mM, 4 hr after removal): 0; Vasoconstriction activity (total score of 4 tests) ([5]; 0.1 mM, 6 hr after removal): 0; Vasoconstriction activity (total score of 4 tests) ([5]; 0.1 mM, 8 hr after removal): 0; Vasoconstriction activity (total score of 4 tests) ([5]; 0.1 mM, 10 hr after removal): 0; Vasoconstriction activity (total score of 4 tests) ([5]; 0.1 mM, 16 hr after removal): 0; Vasoconstriction activity (total score of 4 tests) ([5]; 0.1 mM, 18 hr after removal): 0; Vasoconstriction activity (total score of 4 tests) ([5]; 0.1 mM, 24 hr after removal): 0; Vasoconstriction activity (total score of 4 tests) ([5]; 1 mM, 2 hr after removal, 4 h application): 0; Vasoconstriction activity (total score of 4 tests) ([5]; 1 mM, 4 hr after removal): 0; Vasoconstriction activity (total score of 4 tests) ([5]; 1 mM, 6 hr after removal): 0; Vasoconstriction activity (total score of 4 tests) ([5]; 1 mM, 8 hr after removal): 0; Vasoconstriction activity (total score of 4 tests) ([5]; 1 mM, 10 hr after removal): 0; Vasoconstriction activity (total score of 4 tests) ([5]; 1 mM, 16 hr after removal): 0; Vasoconstriction activity (total score of 4 tests) ([5]; 1 mM, 18 hr after removal): 0; Vasoconstriction activity (total score of 4 tests) ([5]; 1 mM, 24 hr after removal): 0; Vasoconstriction activity alone (in words) ([5]; by itself, concentration range 0.1 to 1 mM, human skin, listed as HC): do not yield any detectable activity; also recorded: no activity; Class [3]: 1
